Experiment [1] has as its system mIPSCs in dentate granule neurons. The experiment is classed as cell-based, rat. The settings on record: 1 μM TTX.
Experiment [2] has as its target recombinant α4β3δ GABAA receptors (Rattus norvegicus, UniProt P18506+P28471+P63079). The experiment is described as follows: Whole-cell patch clamp of transfected HEK-293T cells. The settings on record: 10 μM co-applied with EC5–10 GABA.
The target of experiment [3] is α1(T260F)β3γ2 GABAA receptors (Rattus norvegicus, UniProt P18508+P62813+P63079, T287F). Kind of experiment: Whole-cell patch clamp, point-mutated receptor. The experiment is classed as cell-based. Particulars: compared to wild-type α1β3γ2. A general note: In patch-clamp work, channel activity is measured electrically.
Chain of α1(T260F)β3γ2 GABAA receptors (P62813 28-455 T287F): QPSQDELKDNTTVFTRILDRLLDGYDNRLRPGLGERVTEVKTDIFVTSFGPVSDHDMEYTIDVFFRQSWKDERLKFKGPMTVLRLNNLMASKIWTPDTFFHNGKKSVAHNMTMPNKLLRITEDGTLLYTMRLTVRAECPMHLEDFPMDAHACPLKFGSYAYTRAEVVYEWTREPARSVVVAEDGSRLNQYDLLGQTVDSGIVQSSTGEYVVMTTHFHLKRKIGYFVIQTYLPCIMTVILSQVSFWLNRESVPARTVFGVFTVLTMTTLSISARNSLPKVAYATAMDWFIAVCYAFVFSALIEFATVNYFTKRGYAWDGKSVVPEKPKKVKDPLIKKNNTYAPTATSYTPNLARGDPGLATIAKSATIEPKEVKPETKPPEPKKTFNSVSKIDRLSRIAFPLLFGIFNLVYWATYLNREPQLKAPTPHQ
Chain of α1(T260F)β3γ2 GABAA receptors (P63079 26-473, stated change not applied): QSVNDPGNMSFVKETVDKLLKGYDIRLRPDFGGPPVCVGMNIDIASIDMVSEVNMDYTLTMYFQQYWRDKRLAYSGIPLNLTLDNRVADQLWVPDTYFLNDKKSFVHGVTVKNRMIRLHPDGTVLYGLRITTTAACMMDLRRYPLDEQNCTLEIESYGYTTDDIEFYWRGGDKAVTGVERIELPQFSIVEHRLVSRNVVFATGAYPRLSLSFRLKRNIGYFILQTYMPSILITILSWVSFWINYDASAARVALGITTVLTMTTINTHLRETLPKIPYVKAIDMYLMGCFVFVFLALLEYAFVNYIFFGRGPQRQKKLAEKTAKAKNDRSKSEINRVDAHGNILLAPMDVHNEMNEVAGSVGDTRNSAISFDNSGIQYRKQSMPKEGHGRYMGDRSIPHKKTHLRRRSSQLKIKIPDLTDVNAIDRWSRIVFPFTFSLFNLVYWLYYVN
Chain of α1(T260F)β3γ2 GABAA receptors (P18508 39-466): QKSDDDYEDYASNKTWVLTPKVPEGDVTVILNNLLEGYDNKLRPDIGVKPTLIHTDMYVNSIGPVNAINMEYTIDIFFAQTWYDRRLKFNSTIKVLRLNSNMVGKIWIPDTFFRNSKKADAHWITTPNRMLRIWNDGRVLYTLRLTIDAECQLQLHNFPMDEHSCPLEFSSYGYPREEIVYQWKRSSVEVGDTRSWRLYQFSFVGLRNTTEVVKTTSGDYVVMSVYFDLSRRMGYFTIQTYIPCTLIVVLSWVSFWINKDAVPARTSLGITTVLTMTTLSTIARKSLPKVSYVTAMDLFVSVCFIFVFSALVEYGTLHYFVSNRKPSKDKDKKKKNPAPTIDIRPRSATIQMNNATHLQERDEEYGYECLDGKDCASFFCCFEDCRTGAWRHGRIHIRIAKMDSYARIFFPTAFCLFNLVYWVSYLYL
Experiment [4] deals with T1, recombinant α1β3γ2 GABAA receptors (Rattus norvegicus, UniProt P18508+P62813+P63079). The experiment is described as follows: Whole-cell patch clamp of transfected HEK-293T cells. Particulars: for effect on peak amplitude of the response to saturating GABA: 10 μM modulator with 1 mM GABA, whole-cell; for effect on peak amplitude of the response to saturating GABA / maximum enhancement of the GABA response: −50 mV; for maximum enhancement of the GABA response: co-applied 5 sec with EC5–10 GABA (1 μM), response to GABA alone = 100%.
T1 sequence (P62813 28-455): as the sequence (P62813 28-455 T287F) above, with F260T counted along it
T1 sequence (P63079 26-473): as the sequence (P63079 26-473, stated change not applied) above
T1 sequence (P18508 39-466): as the sequence (P18508 39-466) above

Experiment [5] addresses recombinant α1β3 GABAA receptors (Rattus norvegicus, UniProt P62813+P63079). Described as above. The settings on record: 10 μM co-applied with EC5–10 GABA.
Experiment [6] has as its target α1(S269I)β3γ2 GABAA receptors (Rattus norvegicus, UniProt P18508+P62813+P63079, S296I). The experiment is described as follows: Whole-cell patch clamp, point-mutated receptor. The experiment is classed as cell-based. Particulars: compared to wild-type α1β3γ2.
Experiment [7] has as its target α1(Q240W)β3γ2 GABAA receptors (Rattus norvegicus, UniProt P18508+P62813+P63079, Q268W). The experiment is described as follows: Whole-cell patch clamp, point-mutated receptor. Format: cell-based. The settings on record: compared to wild-type α1β3γ2.
Experiment [8] addresses α1(Y410W)β3γ2 GABAA receptors (Rattus norvegicus, UniProt P18508+P62813+P63079, Y437W). The experiment is described as follows: Whole-cell patch clamp, point-mutated receptor. Format: cell-based. The settings on record: compared to wild-type α1β3γ2.
In experiment [9] the target is α1β3(Y442W)γ2 GABAA receptors (Rattus norvegicus, UniProt P18508+P62813+P63079, Y467W). The experiment is classed as cell-based. The settings on record: compared to wild-type α1β3γ2.
Chain of α1β3(Y442W)γ2 GABAA receptors (P62813 28-455): as the sequence (P62813 28-455 T287F) above, with F260T counted along it
Chain of α1β3(Y442W)γ2 GABAA receptors (P63079 26-473 Y467W): as the sequence (P63079 26-473, stated change not applied) above, with Y442W counted along it
Chain of α1β3(Y442W)γ2 GABAA receptors (P18508 39-466): as the sequence (P18508 39-466) above
Experiment [10] concerns extra-synaptic GABAA receptors in dentate granule neurons. Format: cell-based, rat. The settings on record: CNQX, D-APV, TTX present.
The target of experiment [11] is T1, recombinant α1β3γ2 GABAA receptors. The experiment is described as follows: Outside-out macropatch recording, deactivation after brief GABA application. The settings on record: for increase of weighted mean deactivation rate / weighted mean deactivation rate in presence of modulator: 10 μM modulator co-applied with 1 mM GABA for 5 msec, −70 mV.
Experiment [12] relates to GABAA receptors. The experiment is described as follows: Direct activation of GABAA receptors in the absence of GABA. Format: cell-based.
In experiment [13] the target is α1β3(T256F)γ2 GABAA receptors (Rattus norvegicus, UniProt P18508+P62813+P63079, T281F). The experiment is described as follows: Whole-cell patch clamp, point-mutated receptor. The settings on record: compared to wild-type α1β3γ2. Format: cell-based.
Chain of α1β3(T256F)γ2 GABAA receptors (P62813 28-455, stated change not applied): as the sequence (P62813 28-455 T287F) above, with F260T counted along it
Chain of α1β3(T256F)γ2 GABAA receptors (P63079 26-473 T281F): as the sequence (P63079 26-473, stated change not applied) above, with T256F counted along it
Chain of α1β3(T256F)γ2 GABAA receptors (P18508 39-466): as the sequence (P18508 39-466) above
In experiment [14] the target is α1β3(M286W)γ2 GABAA receptors (Rattus norvegicus, UniProt P18508+P62813+P63079, M311W). The experiment is described as follows: Whole-cell patch clamp, point-mutated receptor. The experiment is classed as cell-based. The settings on record: compared to wild-type α1β3γ2.
Chain of α1β3(M286W)γ2 GABAA receptors (P62813 28-455): as the sequence (P62813 28-455 T287F) above, with F260T counted along it
Chain of α1β3(M286W)γ2 GABAA receptors (P63079 26-473 M311W): as the sequence (P63079 26-473, stated change not applied) above, with M286W counted along it
Chain of α1β3(M286W)γ2 GABAA receptors (P18508 39-466): as the sequence (P18508 39-466) above
The test system of experiment [15] is GABAA receptor-mediated IPSCs in dentate granule cells. The experiment is described as follows: Whole-cell recording of evoked monosynaptic IPSCs in hippocampal slices. Format: cell-based, rat. Particulars: n=5; for 50% decay time of evoked IPSC: relative to control before drug; for amplitude of evoked IPSC: relative to control, p>0.05.
Experiment [16] deals with recombinant α1β3δ GABAA receptors (Rattus norvegicus, UniProt P18506+P62813+P63079). Kind of experiment: Whole-cell patch clamp of transfected HEK-293T cells. Particulars: for effect on peak response to saturating GABA: 10 μM modulator with 1 mM GABA, whole-cell, −50 mV.
Chain of recombinant α1β3δ GABAA receptors (P62813 28-455): as the sequence (P62813 28-455 T287F) above, with F260T counted along it
Chain of recombinant α1β3δ GABAA receptors (P63079 26-473): as the sequence (P63079 26-473, stated change not applied) above
Chain of recombinant α1β3δ GABAA receptors (P18506 17-449 limits assumed): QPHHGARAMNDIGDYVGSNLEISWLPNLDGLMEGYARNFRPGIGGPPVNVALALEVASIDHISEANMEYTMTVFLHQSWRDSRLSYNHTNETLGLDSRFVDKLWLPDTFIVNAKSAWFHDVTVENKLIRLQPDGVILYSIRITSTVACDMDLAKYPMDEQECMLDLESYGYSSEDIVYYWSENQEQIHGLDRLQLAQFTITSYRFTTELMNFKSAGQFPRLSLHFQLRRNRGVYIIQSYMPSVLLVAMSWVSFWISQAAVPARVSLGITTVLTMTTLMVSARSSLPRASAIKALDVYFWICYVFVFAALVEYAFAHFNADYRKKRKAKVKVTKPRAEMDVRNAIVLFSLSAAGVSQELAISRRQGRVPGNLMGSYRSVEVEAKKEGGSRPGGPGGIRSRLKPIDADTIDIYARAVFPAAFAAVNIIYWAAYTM
Experiment [17] relates to recombinant GABAA receptors: six α subtypes with β3 and γ2, three β subtypes with α1 and γ2, three γ subtypes with α1 and β3. Kind of experiment: Whole-cell patch clamp, receptors with varying α, β or γ subtype. The settings on record: 10 μM co-applied with EC5–10 GABA for each isoform.
The mark [18] stands for this setting: honokiol (Fig 1: 30–60 μM), n=6.
Setting [19] is: magnolol 30 μM (Fig 1: 30–60 μM), n=7.

A word on the EC50: it is the midpoint of the concentration-response curve.

Where two headings read alike, the source gives them in different places.

Chain of recombinant α4β3δ GABAA receptors (P28471 36-552): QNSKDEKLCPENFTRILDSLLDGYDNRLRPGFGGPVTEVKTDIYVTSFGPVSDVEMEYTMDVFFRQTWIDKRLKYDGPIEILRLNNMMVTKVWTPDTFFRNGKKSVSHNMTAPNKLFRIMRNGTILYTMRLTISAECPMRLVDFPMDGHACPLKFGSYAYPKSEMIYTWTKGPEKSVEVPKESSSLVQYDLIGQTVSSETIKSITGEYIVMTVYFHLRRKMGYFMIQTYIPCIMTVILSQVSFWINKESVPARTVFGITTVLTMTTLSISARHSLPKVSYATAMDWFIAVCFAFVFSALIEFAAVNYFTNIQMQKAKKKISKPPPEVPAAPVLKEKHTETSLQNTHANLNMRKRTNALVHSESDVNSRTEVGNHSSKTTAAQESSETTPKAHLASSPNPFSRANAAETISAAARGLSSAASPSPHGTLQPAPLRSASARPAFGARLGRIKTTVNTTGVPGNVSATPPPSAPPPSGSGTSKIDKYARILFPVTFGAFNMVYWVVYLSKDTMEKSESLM
Chain of recombinant α4β3δ GABAA receptors (P63079 26-473): as the sequence (P63079 26-473, stated change not applied) above
Chain of recombinant α4β3δ GABAA receptors (P18506 17-449 limits assumed): as the sequence (P18506 17-449 limits assumed) above
Chain of α1(Q240W)β3γ2 GABAA receptors (P62813 28-455 Q268W): as the sequence (P62813 28-455 T287F) above, with Q241W, F260T counted along it
Chain of α1(Q240W)β3γ2 GABAA receptors (P63079 26-473): as the sequence (P63079 26-473, stated change not applied) above
Chain of α1(Q240W)β3γ2 GABAA receptors (P18508 39-466): as the sequence (P18508 39-466) above
Chain of α1(S269I)β3γ2 GABAA receptors (P62813 28-455 S296I): as the sequence (P62813 28-455 T287F) above, with F260T, S269I counted along it
Chain of α1(S269I)β3γ2 GABAA receptors (P63079 26-473): as the sequence (P63079 26-473, stated change not applied) above
Chain of α1(S269I)β3γ2 GABAA receptors (P18508 39-466): as the sequence (P18508 39-466) above
Chain of α1(Y410W)β3γ2 GABAA receptors (P62813 28-455 Y437W): as the sequence (P62813 28-455 T287F) above, with F260T, Y410W counted along it
Chain of α1(Y410W)β3γ2 GABAA receptors (P63079 26-473): as the sequence (P63079 26-473, stated change not applied) above
Chain of α1(Y410W)β3γ2 GABAA receptors (P18508 39-466): as the sequence (P18508 39-466) above
Chain of recombinant α1β3 GABAA receptors (P62813 28-455): as the sequence (P62813 28-455 T287F) above, with F260T counted along it
Chain of recombinant α1β3 GABAA receptors (P63079 26-473): as the sequence (P63079 26-473, stated change not applied) above

Take `C=CCc1ccc(O)c(-c2ccc(O)c(CC=C)c2)c1` [honokiol, 3,5′-diallyl-4,2′-dihydroxybiphenyl]: the mIPSC amplitude result in experiment [1] (honokiol (Fig 1: 30–60 μM)) was “not affected”. Further, the mIPSC frequency in experiment [1] (setting [18]) was found to be 378.9±46.8%. In addition, the “enhancement of the GABA response” value in [2] is recorded as “large enhancement, similar to that of α1β3δ”. In addition, the “impact of mutation on modulation” value in experiment [3] is given as “neither of these mutations had any impact”; in experiment [7], “no impact”; in experiment [13], “neither of these mutations had any impact”. The EC50 in [4] is 1170 ± 200 nM; in [16], 3800 ± 410 nM. Moreover, the “effect on peak amplitude of the response to saturating GABA” value in [4] was “no effect”. Also, in experiment [4], the “maximum enhancement of the GABA response” value amounted to 483.4±64.4%. In [5], the “response (potentiation) of receptors lacking γ or δ” value is “responded to a level comparable to the γ-containing receptors”. Further, the “impact of mutation on potentiation” value in experiment [6], in [8], in [9] and in experiment [14] was “retained wild-type potentiation” each time. Besides, the “enhancement of tonic GABAergic current” value in experiment [10] (setting [18]) amounted to 351.2±79.0%. The “increase of weighted mean deactivation rate” value in experiment [11] was determined as 147.2%. Moreover, the “weighted mean deactivation rate in presence of modulator” value in experiment [11] worked out at 113.5 ± 21.0 ms. The “concentration at which agonist activity (direct activation) was observed” value in experiment [12] is given as “above 10 μM”. In addition, the “50% decay time of evoked IPSC” value in experiment [15] (honokiol 60 μM bath applied) is given as 299.5±16.6%. Besides, the “amplitude of evoked IPSC” value in experiment [15] (honokiol 60 μM bath applied) was 113.3±25.0%. Further, in experiment [16], the “effect on peak response to saturating GABA” value is “nearly doubled”. The “potentiation across receptor isoforms (α, β, γ subtype selectivity)” value in experiment [17] is given as “potentiated to a similar degree, with no apparent selectivity among the subtypes”.

With `C=CCc1ccc(O)c(-c2cc(CC=C)ccc2O)c1` [magnolol, 5,5′-diallyl-2,2′-dihydroxybiphenyl], the mIPSC amplitude result in experiment [1] (magnolol 30 μM (Fig 1: 30–60 μM)) was “not affected”. The compound also returned a mIPSC frequency in experiment [1] (setting [19]) of 476.2±108.5%. Moreover, the “enhancement of the GABA response” value in experiment [2] is listed as “large enhancement, similar to that of α1β3δ”. The “impact of mutation on modulation” value was “neither of these mutations had any impact” in experiment [3], “no impact” in [7] and “neither of these mutations had any impact” in experiment [13]. Moreover, the EC50 in [4] came to 1240 ± 210 nM; in experiment [16], 3400 ± 700 nM. The “effect on peak amplitude of the response to saturating GABA” value in experiment [4] is listed as “no effect”. Also, the “maximum enhancement of the GABA response” value in experiment [4] was 467.6±24.6%. In addition, in [5], the “response (potentiation) of receptors lacking γ or δ” value is listed as “responded to a level comparable to the γ-containing receptors”. Besides, the “impact of mutation on potentiation” value in experiment [6], in experiment [8], in [9] and in [14] was “retained wild-type potentiation” in each case. Also, the “increase of tonic GABAergic current” value in experiment [10] (setting [19]) was found to be 402.5±61.7%. Besides, the “% area of the slower deactivation component in presence of modulator” value in experiment [11] (10 μM co-applied with 1 mM GABA for 5 msec, GABA alone 31.5±5.0) came to 41.8±8.1%. Besides, the “slow τ of deactivation in presence of modulator” value in experiment [11] (10 μM co-applied with 1 mM GABA for 5 msec, GABA alone 161.1±29.6) was 228.4 ± 41.3 ms. For the same compound, in [11], the “increase of weighted mean deactivation rate” value was determined as 171.8%. Further, the “weighted mean deactivation rate in presence of modulator” value in experiment [11] is 104.3 ± 16.2 ms. In addition, the “concentration at which agonist activity (direct activation) was observed” value in [12] is recorded as “above 10 μM”. Further, the “50% decay time of evoked IPSC” value in experiment [15] (magnolol 30 μM bath applied) is given as 267.7±7.9%. Besides, in [15] (magnolol 30 μM bath applied), the “amplitude of evoked IPSC” value is 105.7±11.2%. Further, the “effect on peak response to saturating GABA” value in experiment [16] was “nearly doubled”. Moreover, the “potentiation across receptor isoforms (α, β, γ subtype selectivity)” value in [17] is listed as “potentiated to a similar degree, with no apparent selectivity among the subtypes”.
